The numbers were not newly measured in US20170232026A1, “PHARMACEUTICAL COMPOSITION IN […] FOR VETERINARY USE AS A PROMOTER SYSTEM AND BIO-ADHESIVE IN ANT[…], AND METHOD FOR THE PRODUCTION THEREOF” (UNIVERSIDAD NACIONAL AUTONOMA DE MEXICO, priority 2014, published 2017), which cites them from elsewhere.

The structures appear in SMILES notation.

As to `CC[C@H](C)[C@H]1O[C@]2(CC[C@@H]1C)C[C@@H]1C[C@@H](C/C=C(\C)[C@@H](O[C@H]3C[C@H](OC)[C@@H](O[C@H]4C[C@H](OC)[C@@H](O)[C@H](C)O4)[C@H](C)O3)[C@@H](C)/C=C/C=C3\CO[C@@H]4[C@H](O)C(C)=C[C@@H](C(=O)O1)[C@]34O)O2` [Ivermectin, 22, 23-dihydroavermectin B1a], the “solubility in ethanol at 95%” value (ethanol at 95%) is “soluble”. Where the note is “methanol”, the solubility in methanol result is “soluble”. Moreover, the solubility in water entry (water) is given as “insoluble”.
